Consider 26 compounds from patent publication US9024027B2, “Derivatives of 1-phenyl-2-pyridinyl alkyl alcohols as phosphodiesterase inhibitors” (Chiesi Farmaceutici S.p.A., priority 2011, dated 2015).

Structures are written as SMILES.

This assay relates to LPS-induced TNF-α release in peripheral blood mononuclear cells (PBMCs). Briefly: In vitro determination of PDE4 inhibitory activity in the PBMCs assay (LPS-induced TNF-α release). Conditions: PBMC; human PBMCs, LPS 3 ng/ml, 18 hours; read-out: PDE4 inhibition (IC50, 50% inhibition of LPS-induced TNF-α release). In kind it is cell-based. The protocol:
The assay, which is based on the known inhibitory activity exerted by PDE4 inhibitors on the lipopolyshaccarides (LPS)-induced tumour necrosis factor-alpha (TNF-α release in peripheral blood mononuclear cells (PBMCs), was performed according to a method previously described (Hatzelmann A et al., J. Pharmacol. Exp. Ther., 2001; 297:267-279; and Draheim R et al., J. Pharmacol. Exp. Ther., 2004; 308:555-563, both of which are incorporated herein by reference in their entireties. Cryopreserved human PBMCs, (100 μl/well) were incubated in 96-well plates (10^5 cells/well), for 30 minutes, in the presence or absence (50 microl) of the test compounds whose concentrations ranged from 10^−12 M to 10^−6 M or from 10^−13 M to 10^−7 M. Subsequently, LPS (3 ng/ml) was added. After 18 hours of incubation at 37° C. in a humidified incubator under an atmosphere of 95% air and 5% CO2, culture medium was collected and TNF-α measured by ELISA.
The results of the tested compounds, representatives of the invention, expressed as mean±95% confidence limits of the molar concentration of the test compound producing 50% inhibition of LPS-induced TNF-α release (IC50) are shown in the following Table: […]
Broadly, the IC50 is the concentration that inhibits the measured activity by half. For the compound `Nc1ccc2c(c1)C(=O)N(CC(=O)O[C@@H](Cc1c(Cl)c[n+]([O-])cc1Cl)c1ccc(OC(F)F)c(OCC3CC3)c1)C2` [Compound 9, (S)-4-(2-(2-(6-amino-1-oxoisoindolin-2-yl)acetoxy)-2-(3-(cyclopropylmethoxy)-4-(difluoromethoxy)phenyl)ethyl)-3,5-dichloropyridine 1-oxide], the concentration for half-maximal inhibition (IC50) lay within 1 to 10 nM.
Regarding `CS(=O)(=O)Nc1ccc2c(c1)C(=O)N(CC(=O)O[C@@H](Cc1c(Cl)c[n+]([O-])cc1Cl)c1ccc(OC(F)F)c(OCC3CC3)c1)C2` [Compound 10, (S)-3,5-dichloro-4-(2-(3-(cyclopropylmethoxy)-4-(difluoromethoxy)phenyl)-2-(2-(6-(methylsulfonamido)-1-oxoisoindolin-2-yl)acetoxy)ethyl)pyridine 1-oxide], the IC50 lay within 1 to 10 nM.
The result for `Nc1cccc2c1C(=O)N(CC(=O)O[C@@H](Cc1c(Cl)c[n+]([O-])cc1Cl)c1ccc(OC(F)F)c(OCC3CC3)c1)C2=O` [Compound 12, (S)-4-(2-(2-(4-amino-1,3-dioxoisoindolin-2-yl)acetoxy)-2-(3-(cyclopropylmethoxy)-4-(difluoromethoxy)phenyl)ethyl)-3,5-dichloropyridine 1-oxide] reads below 1 nM; that for `O=C(Cn1ccc2ccccc21)O[C@@H](Cc1c(Cl)c[n+]([O-])cc1Cl)c1ccc(OC(F)F)c(OCC2CC2)c1` [Compound 14, (S)-4-(2-(2-(1H-indol-1-yl)acetoxy)-2-(3-(cyclopropylmethoxy)-4-(difluoromethoxy)phenyl)ethyl)-3,5-dichloropyridine 1-oxide], below 1 nM; that for `CSCCC(C(=O)OC(Cc1c(Cl)c[n+]([O-])cc1Cl)c1ccc(OC(F)F)c(OCC2CC2)c1)N1C(=O)c2ccccc2C1=O` (centres unmarked) [Compound 15], below 1 nM.
To `CC(C(=O)OC(Cc1c(Cl)c[n+]([O-])cc1Cl)c1ccc(OC(F)F)c(OCC2CC2)c1)N1C(=O)c2ccccc2C1=O` (centres unmarked) [Compound 18] belongs below 1 nM.
The result for `O=C(CN1C(=O)c2cc(Cl)c(Cl)cc2C1=O)O[C@@H](Cc1c(Cl)c[n+]([O-])cc1Cl)c1ccc(OC(F)F)c(OCC2CC2)c1` [Compound 19] reads below 1 nM.
Take `Cn1cnc2c1c(=O)n(CC(=O)O[C@@H](Cc1c(Cl)c[n+]([O-])cc1Cl)c1ccc(OC(F)F)c(OCC3CC3)c1)c(=O)n2C` [Compound 20]: the IC50 was below 1 nM.
With `O=C(Cn1cnc2ccccc21)O[C@@H](Cc1c(Cl)c[n+]([O-])cc1Cl)c1ccc(OC(F)F)c(OCC2CC2)c1` [Compound 22], the IC50 lay within 1 to 10 nM.
`O=C(CN1C(=O)C(=O)c2ccccc21)O[C@@H](Cc1c(Cl)c[n+]([O-])cc1Cl)c1ccc(OC(F)F)c(OCC2CC2)c1` [Compound 25]: the IC50 is below 1 nM.
To `O=C(CN1C(=O)C(=O)c2cc([N+](=O)[O-])ccc21)O[C@@H](Cc1c(Cl)c[n+]([O-])cc1Cl)c1ccc(OC(F)F)c(OCC2CC2)c1` [Compound 26] belongs above 10 nM; to `O=C(CN1C(=O)c2ccccc2C1=O)O[C@H](Cc1c(Cl)c[n+]([O-])cc1Cl)c1ccc(OC(F)F)c(OCC2CC2)c1` [Compound 29], above 10 nM; to `O=C(Cn1c(=O)[nH]c2ccccc2c1=O)O[C@@H](Cc1c(Cl)c[n+]([O-])cc1Cl)c1ccc(OC(F)F)c(OCC2CC2)c1` [Compound 30], below 1 nM.
As to `CC1(C)c2ccccc2S(=O)(=O)N1CC(=O)O[C@@H](Cc1c(Cl)c[n+]([O-])cc1Cl)c1ccc(OC(F)F)c(OCC2CC2)c1` [Compound 35, (S)-3,5-dichloro-4-(2-(3-(cyclopropylmethoxy)-4-(difluoromethoxy)phenyl)-2-(2-(3,3-dimethyl-1,1-dioxidobenzo[d]isothiazol-2(3H)-yl)acetoxy)ethyl)pyridine 1-oxide], the IC50 fell in the range of 1 to 10 nM.
As to `O=C(Cn1c(=O)c(=O)n(CCN2CCOCC2)c2ccccc21)O[C@@H](Cc1c(Cl)c[n+]([O-])cc1Cl)c1ccc(OC(F)F)c(OCC2CC2)c1` [Compound 37, (S)-3,5-dichloro-4-(2-(3-(cyclopropylmethoxy)-4-(difluoromethoxy)phenyl)-2-(2-(4-(2-morpholinoethyl)-2,3-dioxo-3,4-dihydroquinoxalin-1(2H)-yl)acetoxy)ethyl)pyridine 1-oxide], the IC50 is below 1 nM.
With `O=C(Cn1c(=O)n(CCN2CCOCC2)c(=O)c2ccccc21)O[C@@H](Cc1c(Cl)c[n+]([O-])cc1Cl)c1ccc(OC(F)F)c(OCC2CC2)c1` [Compound 38], the IC50 was below 1 nM.
As to `O=C(Cn1c(=O)c2ccccc2n(CCN2CCOCC2)c1=O)O[C@@H](Cc1c(Cl)c[n+]([O-])cc1Cl)c1ccc(OC(F)F)c(OCC2CC2)c1` [Compound 39], the IC50 was below 1 nM.
To `O=C(Cn1c(=O)c2ccccc2c(=O)n1CCN1CCOCC1)O[C@@H](Cc1c(Cl)c[n+]([O-])cc1Cl)c1ccc(OC(F)F)c(OCC2CC2)c1` [Compound 40] belongs 1 to 10 nM; to `O=C(Cn1ccc2cc(O)ccc21)O[C@@H](Cc1c(Cl)c[n+]([O-])cc1Cl)c1ccc(OC(F)F)c(OCC2CC2)c1` [Compound 42, (S)-3,5-dichloro-4-(2-(3-(cyclopropylmethoxy)-4-(difluoromethoxy)phenyl)-2-(2-(5-hydroxy-1H-indol-1-yl)acetoxy)ethyl)pyridine 1-oxide], below 1 nM.
Take `COc1ccc2c(ccn2CC(=O)O[C@@H](Cc2c(Cl)c[n+]([O-])cc2Cl)c2ccc(OC(F)F)c(OCC3CC3)c2)c1` [Compound 45, (S)-3,5-dichloro-4-(2-(3-(cyclopropylmethoxy)-4-(difluoromethoxy)phenyl)-2-(2-(5-methoxy-1H-indol-1-yl)acetoxy)ethyl)pyridine 1-oxide]: the IC50 was below 1 nM.
The result for `COc1cc2ccn(CC(=O)O[C@@H](Cc3c(Cl)c[n+]([O-])cc3Cl)c3ccc(OC(F)F)c(OCC4CC4)c3)c2cc1OC` [Compound 54] reads 1 to 10 nM; that for `COc1ccc2c(c1)C(=O)C(=O)N2CC(=O)O[C@@H](Cc1c(Cl)c[n+]([O-])cc1Cl)c1ccc(OC(F)F)c(OCC2CC2)c1` [Compound 57, (S)-3,5-dichloro-4-(2-(3-(cyclopropylmethoxy)-4-(difluoromethoxy)phenyl)-2-(2-(5-methoxy-2,3-dioxoindolin-1-yl)acetoxy)ethyl)-pyridine 1-oxide], below 1 nM.
The result for `O=C(Cn1ccc2cccnc21)O[C@@H](Cc1c(Cl)c[n+]([O-])cc1Cl)c1ccc(OC(F)F)c(OCC2CC2)c1` [Compound 60] reads 1 to 10 nM; that for `O=C(Cn1ccc2cnccc21)O[C@@H](Cc1c(Cl)c[n+]([O-])cc1Cl)c1ccc(OC(F)F)c(OCC2CC2)c1` [Compound 61], 1 to 10 nM.
The result for `COc1ccc2c(c1)N(CC(=O)O[C@@H](Cc1c(Cl)c[n+]([O-])cc1Cl)c1ccc(OC(F)F)c(OCC3CC3)c1)C(=O)C2=O` [Compound 64, (S)-3,5-dichloro-4-(2-(3-(cyclopropylmethoxy)-4-(difluoromethoxy)phenyl)-2-(2-(6-methoxy-2,3-dioxoindolin-1-yl)acetoxy)ethyl)-pyridine 1-oxide] reads below 1 nM; that for `COc1cccc2c1C(=O)N(CC(=O)O[C@@H](Cc1c(Cl)c[n+]([O-])cc1Cl)c1ccc(OC(F)F)c(OCC3CC3)c1)C2=O` [Compound 68, (S)-3,5-dichloro-4-(2-(3-(cyclopropylmethoxy)-4-(difluoromethoxy)phenyl)-2-(2-(4-methoxy-1,3-dioxoisoindolin-2-yl)acetoxy)-ethyl)pyridine 1-oxide], below 1 nM.
